“Also recorded” adds a separate entry of the source. Where two headings read alike, the source gives them in different places.

Data set [1] can be described thus: iron precipitation assay (removal of radioactive 55Fe2+ from buffer). It counts as physicochemical. Particulars: compound 10 μM, 15 min. How it is done: Fig. 4 Chemical evidence of divalent metal complexation by hDMT1 inhibitors. (a and b) Isothermal titration calorimetry of pyrazole 13 (0.4 mM) with Cd^2+ (5 mM) in aqueous buffer pH 7.4 and pH 5.5, 25 °C. (c) Calcein quenching assay in aqueous buffer pH 5.5 (2 μM Fe^2+, 10 μM ligand, 1 μM calcein). Fe^2+ (2 μM), ascorbic acid (200 μM) and compounds (20 μM) were incubated for 5 min before the addition of calcein (1 μM) in Krebs buffer at pH 5.5. Fluorescence was measured after 5 min incubation. (d and e) Removal of radioactive ^55Fe^2+ from buffers upon incubation with ligands and centrifugation. ^55Fe^2+ (1 μM) precipitation upon interaction with the indicated compounds (10 μM). ^55Fe^2+ and the indicated compounds were incubated for 15 min, then, an aliquot of the solution supernatant was taken for determination of the remaining ^55Fe^2+. Data was normalized to the values obtained for the Fe^2+ + DMSO (0.1%) solution and represented as mean ± SD (N = 15; 2 independent experiments). Statistical differences were assessed using T-test or Mann–Whitney U test (Fe^2++ DMSO vs. each compound); p > 0.05 = ns; p < 0.05 = *; p < 0.001 = ***. […]
Iron precipitation assay. Polypropylene tubes containing uptake solution (140 mM NaCl, 2.5 mM KCl, 1 mM CaCl2, 1 mM MgCl2, 1.2 mM K2HPO4, 10 mM glucose, 5 mM HEPES, 5 mM MES, pH 7.4) supplemented with 1 µM Ferrous iron (Fe2+), 100 µM Ascorbic Acid, radiolabelled 55Fe2+ (0.5 µCi/mL) and 10 µM of the different compounds under study were incubated for 15 minutes at RT. Then, 10 µL aliquots from each tube were transferred in quadruplicate to a clear bottom, white -well, poly-D-lysine coated 96-well plate (Corning), and 55Fe2+ content was determined by scintillation counting as above described. […]
Statistics. Except when representative experiments are presented, results are shown as Mean ± Standard deviation (SD). Parametric distribution of the averaged values was assessed by […]

Data set [2] can be described thus: acid-base titration with NaOH. Conditions: Milli-Q water with 10% DMSO, ~2 mM compound. Type of data set: physicochemical. How it is done:
Fig. 6 (a) Acid–base titration of 3, 5, 13 and neutral and basic forms of 3, 5, 13. (20 μmol of compound in 10 mL (10% DMSO, ∼2 mM), 3 and 5 were acidified with HCl (50 μmol)). (b) Acid-base equilibria for inhibitors 3, 5 and 13 highlighting potentially metal chelating nitrogen atoms in red. (c) TMAP of our inhibitors combined with 169 pyrazolyl-pyrimidones and 1717 pyrazolyl-pyridines found in ChEMBL, color coded by source: cyan = pyrazolyl-pyridines from ChEMBL, blue = pyrazolyl-pyrimidones from ChEMBL, red = this work. Insert: Close-up view around pyrazolyl-pyrimidones color-coded by target class: red = transporter, cyan = enzyme, magenta = unclassified protein, grey = unclassified target. The interactive TMAP including further color-codes (target classes, QED, etc.) is accessible at:; http://tm.gdb.tools/dmt1_inhibitors/pyrimidones_pyridines/ […]
Milli-Q water, 1 mL DMSO and 0.5 mL HCl 0.1 M (Final concentration of 2 mM). Compound
13 (HCl salt, 200 µL, 0.1 M in DMSO) was dissolved in 0.8 mL DMSO and […] Milli-Q
water. Then, a solution of 0.1 M NaOH was added by steps of 2 µL with a Dosimat plus
(Metrohm, Zofingen, Switzerland) and pH was measured using a 692 pH/ion meter (Metrohm).

Take `N=C(N)SCc1cccc2c1oc1c(CSC(=N)N)cccc12` [Compound 1, reference compound]: the “precipitation of Fe2+” value in data set [1] (pH 7.4, 55Fe2+ 1 μM) is listed as “had no effect”.

Regarding `Cc1nn(-c2ccccn2)c(O)c1C(=O)Nc1cccc(C(F)(F)F)c1` [Compound 3, reference compound], the “precipitation of Fe2+” value in data set [1] (pH 5.5, 55Fe2+ 1 μM) is “only observed precipitation with the literature inhibitor 3; also recorded: high precipitation of iron”; in data set [1] (pH 7.4, 55Fe2+ 1 μM), “induced significant precipitation”. Also, the pKa in data set [2] (read-out: pKa1) worked out at 3.3; in data set [2] (read-out: pKa2), 6.7.

Consider `Cc1cc(O)nc(-n2nc(C)cc2C)n1` [Compound 5], for which, in data set [1] (pH 7.4, 55Fe2+ 1 μM), the “precipitation of Fe2+” value is “had no effect”. Also, the pKa in data set [2] (read-out: pKa1) amounted to 3.6; in data set [2] (read-out: pKa2), 6.5.

For the molecule `Cc1cc(=O)[nH]c(-n2nc3c(c2C)CCCC3)n1` [Compound 13], the “precipitation of Fe2+” value in data set [1] (pH 7.4, 55Fe2+ 1 μM) was “induced significant precipitation”. In addition, the values for the pKa in data set [2] (read-out: pKa1) and in data set [2] (read-out: pKa2) were 3.3 and 7, respectively.

For `c1ccc(-c2ccccn2)nc1` [bipyridine], the “precipitation of Fe2+” value in data set [1] (pH 7.4, 55Fe2+ 1 μM) was “had no effect”.

Values taken from PMC7649969, “Pyrazolyl-pyrimidones inhibit the function of human solute carrier protein SLC11A2 (hDMT1) by metal chelation” (RSC Medicinal Chemistry, 2020).
